Test results as given in US20260048046A1, “METHOD FOR IMPROVING GROWTH PERFORMANCE IN FEEDLOT CATTLE” (Elanco US Inc., priority 2022, published 2026).

Key:
beef steers = test: Lubabegron removal period study: animal mobility at harvest; assay type: in vivo, cattle; conditions: for Mobility Score 1, number of animals / Mobility Score 2, number of animals / Mobility Score 3, number of animals / Mobility Score 4, number of animals: Lubabegron 3.5 mg/kg, in lairage at harvest
Description: Seven hundred English x Continental cross steers (initial BW=531±8.8 kg) were used in a randomized complete block design with seven treatments. Pen served as the experimental unit. […] Animals were managed as two-time replications with each replication containing five blocks (7 pens/block and 10 steers/pen). All ten blocks started and ended within 48 hours of each other. Cattle were weighed by pen using a 45,000-kg capacity pen scale (Model WI-130, Avery Weigh-Tronix LLC, Fairmont, MN; 3.66 m×21.34 m). All treatments were on feed for 71 d with harvest scheduled for 72 d. Because of an impending weather event, cattle were weighed to obtain a final BW one d early. Cattle were placed on their respective ration for the additional d and then shipped to the harvest facility the following morning.
657 head were transported to a harvest facility approximately 495 km from the research facility. Animals were scored for animal mobility using the North American Meat Institute (NAMI, 2015) scoring scale described by Edwards-Callaway et al., (2017) while in lairage. […] Experienced staff collected an ear tag number, plant identification (ID), and carcass sequence and applied a unique carcass ID. Data collected on the kill floor included HCW, instances of excessive trim (>approximately 9 kg), and prevalence of liver abscess (Brown et al., 1975). Other carcass measures were obtained via instrument grading.
Continuous variables were analyzed using the Mixed procedure of SAS (version 9.4; SAS Institute, Cary, NC). Block served as a random effect whereas treatment was fixed. Initial body weight was used to describe the uniformity of cattle randomized to treatment and used as a covariate when appropriate. Data were calculated with deads and removals excluded. Linear and quadratic effects of lubabegron removal were conducted as were individual comparisons for duration of removal (i.e., 0 vs 2 d; 0 vs 4 d, 0 vs 6 d; 0 vs 8 d and 0 vs 16 d). Fisher's Exact test was evaluated on mobility scores 1 and 2. No test was conducted on mobility scores of 3 or 4 because no scores were reported. Simple means and standard deviation of the tissues collected for the 5 animals were calculated.

beef cattle = test: 91-d study: Warner-Bratzler shear force of striploin steaks; assay type: in vivo; conditions: 91-d treatment, LS mean, shear force after 14-d aging
Description: Following chill, striploins (LM) were collected from three randomly selected cattle/CPE and shipped to the University of Illinois Meat Science Laboratory for Warner-Bratzler shear force (WBSF) determination. At the laboratory, the anterior end of the striploin was fabricated into 2.54-cm steaks, vacuum packaged, and aged at 4° C. until 14-d postmortem. Steaks were frozen after aging, and then thawed at 4° C. for 24 h before being cooked on a Farberware Open Hearth electric broiler (Farberware, Bronx, NY). Copper-constantan Type-T thermocouples (Omega Engineering. Stamford, CT) connected to a digital scanning thermometer (Barnant Co., Barington, IL) were used to monitor internal temperature, and each steak was flipped a single time when the internal temperature reached 35° C. The steaks were removed from the grill when a temperature of 70° C. was achieved and cooled to ˜25° C. before six cores (1.25 cm diameter) were removed parallel to muscle fiber orientation. Cores were sheared perpendicular to the muscle fibers using a Texture Analyzer TA.HD Plus (Stable Microsystems, Godalming. UK) equipped with a WBSF attachment, and the peak WBSF measurement was averaged over all 6 cores to obtain a single shear force measurement (kg of force) for each steak.

CC(C)(Cc1ccc(Oc2ncccc2C#N)cc1)NC[C@H](O)COc1ccccc1-c1cccs1 [LUB, 2-{4-[2-({(2S)-2-Hydroxy-3-[2-(2-thienyl)phenoxy]propyl}amino)-2-methylpropyl]phenoxy}nicotinonitrile]
Animal mobility when lubabegron was fed (beef steers; 3.5 mg/kg DM vs non-treated, P<0.25): No differences
Mobility Score 1, number of animals (beef steers; removal duration 0 d): 92 n
Mobility Score 2, number of animals (beef steers; removal duration 0 d): 3 n
Mobility Score 3, number of animals (beef steers; removal duration 0 d): 0 n
Mobility Score 4, number of animals (beef steers; removal duration 0 d): 0 n
Mobility Score 1, number of animals (beef steers; removal duration 2 d): 95 n
Mobility Score 2, number of animals (beef steers; removal duration 2 d): 0 n
Mobility Score 3, number of animals (beef steers; removal duration 2 d): 0 n
Mobility Score 4, number of animals (beef steers; removal duration 2 d): 0 n
Mobility Score 1, number of animals (beef steers; removal duration 4 d): 91 n
Mobility Score 2, number of animals (beef steers; removal duration 4 d): 2 n
Mobility Score 3, number of animals (beef steers; removal duration 4 d): 0 n
Mobility Score 4, number of animals (beef steers; removal duration 4 d): 0 n
Mobility Score 1, number of animals (beef steers; removal duration 6 d): 89 n
Mobility Score 2, number of animals (beef steers; removal duration 6 d): 4 n
Mobility Score 3, number of animals (beef steers; removal duration 6 d): 0 n
Mobility Score 4, number of animals (beef steers; removal duration 6 d): 0 n
Mobility Score 1, number of animals (beef steers; removal duration 8 d): 87 n
Mobility Score 2, number of animals (beef steers; removal duration 8 d): 4 n
Mobility Score 3, number of animals (beef steers; removal duration 8 d): 0 n
Mobility Score 4, number of animals (beef steers; removal duration 8 d): 0 n
Mobility Score 1, number of animals (beef steers; removal duration 16 d): 90 n
Mobility Score 2, number of animals (beef steers; removal duration 16 d): 5 n
Mobility Score 3, number of animals (beef steers; removal duration 16 d): 0 n
Mobility Score 4, number of animals (beef steers; removal duration 16 d): 0 n
Animal mobility with increased duration of removal (beef steers; lubabegron 3.5 mg/kg DM, removal 0 to 16 d, P<0.06): tended (P<0.06) to be reduced
14-dWBSP (beef cattle; LUB 1.38 mg·kg^−1 DM): 2.79 kg
14-dWBSP (beef cattle; LUB 5.5 mg·kg^−1 DM): 2.92 kg
14-dWBSP (beef cattle; LUB 22.0 mg·kg^−1 DM): 2.75 kg
